Common to all, as to assay: isothermal titration calorimetry
Common to all, as to format: binding
Background: Isothermal titration calorimetry measures the heat released or taken up as one component is titrated into another.

Assay [1] has as its target T1, AaLpxC (Aquifex aeolicus, UniProt O67648).
T1 construct: gene lpxC; codon-optimised gene in pET-21a (NdeI/XhoI), E. coli BL21(DE3); approx. 32 kDa; Zn2+ enzyme; last five residues LTRLE disordered in crystal
T1 sequence (O67648 1-271): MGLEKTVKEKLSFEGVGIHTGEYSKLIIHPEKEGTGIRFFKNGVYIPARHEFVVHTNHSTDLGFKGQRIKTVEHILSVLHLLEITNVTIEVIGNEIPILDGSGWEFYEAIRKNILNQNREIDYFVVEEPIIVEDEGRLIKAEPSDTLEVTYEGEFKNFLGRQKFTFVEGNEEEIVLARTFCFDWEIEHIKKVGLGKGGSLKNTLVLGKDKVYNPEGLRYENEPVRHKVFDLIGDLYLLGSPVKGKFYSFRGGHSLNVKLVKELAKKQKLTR
An excerpt:
(§1) isothermal titration calorimetry on AaLpxC

Assay [2] deals with T2, AaLpxC (Aquifex aeolicus, UniProt O67648, E185A).
T2 construct: gene lpxC; codon-optimised gene in pET-21a (NdeI/XhoI), E. coli BL21(DE3); approx. 32 kDa; Zn2+ enzyme; last five residues LTRLE disordered in crystal
T2 sequence (O67648 1-271 E185A): T1 sequence (O67648 1-271) with E185A
Text: as §1

For assay [3], the target named is T3, AaLpxC (Aquifex aeolicus, UniProt O67648, E73A).
T3 construct: gene lpxC; codon-optimised gene in pET-21a (NdeI/XhoI), E. coli BL21(DE3); approx. 32 kDa; Zn2+ enzyme; last five residues LTRLE disordered in crystal
T3 sequence (O67648 1-271 E73A): T1 sequence (O67648 1-271) with E73A
Text: as §1

The target in assay [4] is T4, AaLpxC (Aquifex aeolicus, UniProt O67648, F180A).
T4 construct: gene lpxC; codon-optimised gene in pET-21a (NdeI/XhoI), E. coli BL21(DE3); approx. 32 kDa; Zn2+ enzyme; last five residues LTRLE disordered in crystal
T4 sequence (O67648 1-271 F180A): T1 sequence (O67648 1-271) with F180A
Text: as §1

Assay [5] concerns the target T5, AaLpxC (Aquifex aeolicus, UniProt O67648, H19A).
T5 construct: gene lpxC; codon-optimised gene in pET-21a (NdeI/XhoI), E. coli BL21(DE3); approx. 32 kDa; Zn2+ enzyme; last five residues LTRLE disordered in crystal
T5 sequence (O67648 1-271 H19A): T1 sequence (O67648 1-271) with H19A
Text: as §1

For assay [6], the target named is T6, AaLpxC (Aquifex aeolicus, UniProt O67648, I186A).
T6 construct: gene lpxC; codon-optimised gene in pET-21a (NdeI/XhoI), E. coli BL21(DE3); approx. 32 kDa; Zn2+ enzyme; last five residues LTRLE disordered in crystal
T6 sequence (O67648 1-271 I186A): T1 sequence (O67648 1-271) with I186A
Text: as §1

Assay [7] deals with T7, AaLpxC (Aquifex aeolicus, UniProt O67648, I189A).
T7 construct: gene lpxC; codon-optimised gene in pET-21a (NdeI/XhoI), E. coli BL21(DE3); approx. 32 kDa; Zn2+ enzyme; last five residues LTRLE disordered in crystal
T7 sequence (O67648 1-271 I189A): T1 sequence (O67648 1-271) with I189A
Text: as §1

For assay [8], the target named is T8, AaLpxC (Aquifex aeolicus, UniProt O67648, I18A).
T8 construct: gene lpxC; codon-optimised gene in pET-21a (NdeI/XhoI), E. coli BL21(DE3); approx. 32 kDa; Zn2+ enzyme; last five residues LTRLE disordered in crystal
T8 sequence (O67648 1-271 I18A): T1 sequence (O67648 1-271) with I18A
Text: as §1

Assay [9] concerns the target T9, AaLpxC (Aquifex aeolicus, UniProt O67648, K227A).
T9 construct: gene lpxC; codon-optimised gene in pET-21a (NdeI/XhoI), E. coli BL21(DE3); approx. 32 kDa; Zn2+ enzyme; last five residues LTRLE disordered in crystal
T9 sequence (O67648 1-271 K227A): T1 sequence (O67648 1-271) with K227A
Text: as §1

Assay [10] concerns the target T10, AaLpxC (Aquifex aeolicus, UniProt O67648, S59A).
T10 construct: gene lpxC; codon-optimised gene in pET-21a (NdeI/XhoI), E. coli BL21(DE3); approx. 32 kDa; Zn2+ enzyme; last five residues LTRLE disordered in crystal
T10 sequence (O67648 1-271 S59A): T1 sequence (O67648 1-271) with S59A
Text: as §1

The target in assay [11] is T11, AaLpxC (Aquifex aeolicus, UniProt O67648, T203A).
T11 construct: gene lpxC; codon-optimised gene in pET-21a (NdeI/XhoI), E. coli BL21(DE3); approx. 32 kDa; Zn2+ enzyme; last five residues LTRLE disordered in crystal
T11 sequence (O67648 1-271 T203A): T1 sequence (O67648 1-271) with T203A
Text: as §1

Our source for the Kd values is PMC7962117, “The Complex Structure of Protein AaLpxC from Aquifex aeolicus with ACHN-975 Molecule Suggests an Inhibitory Mechanism at Atomic-Level against Gram-Negative Bacteria” (Molecules, 2021).

Numbering of substitutions follows the chain as printed.

Turning to `CC(C)(N)[C@H](NC(=O)c1ccc(C#CC#C[C@@H]2C[C@H]2CO)cc1)C(=O)NO` [ACHN-975], the Kd at AaLpxC [1] came to 0.4 ± 0.1 µM; on AaLpxC [2], 0.06 ± 0.03 µM; at AaLpxC [3], 0.07 ± 0.05 µM; at AaLpxC [4] it was 0.09 ± 0.07 µM; on AaLpxC [5] it was 0.4 ± 0.2 µM; on AaLpxC [6] it was 0.2 ± 0.09 µM. Besides, the Kd worked out at 0.1 ± 0.09 µM at AaLpxC [7]; 0.4 ± 0.3 µM at AaLpxC [8]; 0.1 ± 0.08 µM at AaLpxC [9]; 0.4 ± 0.1 µM at AaLpxC [10]; 2 ± 1.4 µM on AaLpxC [11].

The term Kd denotes the concentration at which binding is half-saturated. A low value points to higher affinity.
